Source: US20240166593A1, “LIPIDS SUITABLE FOR NUCLEIC ACID DELIVERY” (RAMOT AT TEL-AVIV UNIVERSITY LTD., priority 2021, published 2024)
Several values for one entry are separate records, joined by “and”; a condition that tells them apart may be missing. Equal values may be shown once.

Assays:
[1] = Physico-chemical characterization of LNPs made of different ionizable lipids (DLS, zeta potential); type: physicochemical
Description: Various LNPs comprising different ionizable lipid were prepared by using microfluidic micro mixture (Precision NanoSystems, Vancouver, BC) device. Briefly, one volume of lipid mixtures (ionizable lipid, DSPC, Cholesterol and DMG-PEG at 30:18:49.5:2.5 mole ratios) in ethanol and three volumes of mRNA containing acetate buffer solutions were mixed through the micromixer at a combined flow rate of 12 mL/min. The resultant mixture was dialyzed against PBS (pH 7.4) for 16 hours to remove ethanol.
The prepared LNPs comprising different ionizable lipids were characterized using transmission electron microscopy (TEM) analysis (FIGS. 10A-10G), dynamic light scattering (DLS) and zeta potential measurements. Table 1 represents the measured hydrodynamic diameter (Z-ave; d.nm), polydispersity index (PDI) and zeta potential (mV) of various LNPs. The resultant LNPs were spherical and uniformly distributed with a hydrodynamic diameter size of ˜50-260 nm, depending on the ionizable lipid used. Additionally, LNP surface potentials were negative.
In addition, DSL1-3 LNPs comprising different amounts of PEG (1.5 mol % or 2.5 mol %) were compared for bio-distribution. Mice treated and sacrificed; organs prepared for luciferase expression analysis as detailed above. […] Next, as shown in FIGS. 11M-11P, mRNA-LNPs composed of DSL1-4, 1-5, 2-2 or 2-50 lipids were compared to DSPC or DOPE as co-lipids. […] Tables 2-5 detail the physio-chemical properties of LNPs made of either DOPE or DSPC (the measured hydrodynamic diameter (Z-ave; d.nm), polydispersity index (PDI)).

luciferase expression [2] = assay: In-vivo delivery of mRNA encoding luciferase using LNPs (IVIS of organs); parameters: species or system Mice; conditions: for bio-distribution of LNPs (luciferase expression by IVIS): mLUC-LNPs IV 0.5 mg/kg, 7 hr post administration, lung, liver, spleen, kidney; for luciferase activity of LNPs with DOPE as co-lipid compared to DSPC containing LNPs: mRNA-LNPs in mice; for bio-distribution on increasing ionizable lipid mole ratio (40% vs 30%): mRNA-LNPs IV
[3] = test system: CD11c positive splenic dendritic cells; assay: mCRE-LNPs in Ai9 mice, FACS for tdTomato expression; type: in vivo; conditions: mCRE-LNPs IV 0.5 mg/kg, 72 hr post administration
Description: (§1) Ai9 mice that express robust tdTomato fluorescence following cre-mediated recombination were injected intravenously with the various mCRE-LNPs at 0.5 mg/kg dose. Mice were sacrificed 72 hr post administration and peritoneal macrophages and spleenocytes were isolated and analyzed by FACS for tdTomato expression (FIGS. 13 and 14).

peritoneal macrophages = assay: as above; type: in vivo; conditions: mCRE-LNPs IV 0.5 mg/kg, 72 hr post administration
Description: as §1

mice = assay: In vivo safety analysis of mRNA-LNPs (serum liver enzymes); conditions: mRNA-LNPs IV; serum after 2 hr and 24 hr; compared to untreated mice
Description: After 2 hr and 24 hr blood was collected and serum samples were analyzed for levels of the liver enzymes alkaline phosphatase (Alk Phos), serum glutamic-oxaloacetic transaminase (SGOT) or serum glutamic pyruvic transaminase (SGPT).
Safety is an important limitation for clinical development of LNPs. Therefore, mRNA-LNPs system made of DSL2-50 and DSL1-3 lipids were tested and evaluated for the toxicity in mice.

[4] = Stability of mRNA-LNPs stored at 2-8° C. (size, PDI); type: physicochemical
luciferase expression [5] = assay: Luciferase expression in mouse organs after storage of mRNA-LNPs (IVIS); type: in vivo, mice; conditions: mLuc LNPs stored 210 days at 2-8° C.
[6] = test system: Luciferase and mCherry expression; assay: Delivery of two types of mRNA encapsulated in a single LNP (IVIS of livers); type: in vivo; conditions: mice livers; compared to SM102-LNPs
SARS-CoV-2 = conditions: IM day 0 and booster day 21, serum 3 weeks after booster; BALB/c and C57BL6 mice
Description: To evaluate the efficiency of our LNP system for vaccine delivery, mRNA against human Fc conjugated RBD (RBD-hFc mRNA) was chosen. LNPs encapsulated RBD-mRNA administered IM in to BALB/c mice (FIG. 19) and C57BL6 mice (FIG. 20) on day ‘0’ and a booster dose on day ‘21’. Serum was collected on day ‘21’ (pre boost) and 3 weeks after the booster dose (post boost) and analyzed for humoral response. […] The cellular response (SARS-CoV-2 specific T-cell response) was measured by ELISPOT assay for IFN-γ response.

tdTomato expression = assay: Biodistribution of DSL1-2 LNPs compared to Dlin-MC3-DMA LNPs (IVIS of spleen and liver); type: in vivo, Ai9 mice; conditions: mCRE-LNPs IV 0.5 mg/kg, 72 hr post administration
Description: Ai9 mice that express robust tdTomato fluorescence following cre-mediated recombination were injected intravenously with either Dlin-MC3-DMA or DSL1-2 mCRE-LNPs at 0.5 mg/kg dose. Mice were sacrificed 72 hr post administration followed by spleen and liver isolation and analyzed by IVIS for tdTomato expression.

[7] = mRNA LNPs: ionizable lipid, DSPC, Cholesterol, DMG-PEG 30:18:49.5:2.5 mole ratio

Row | Compound | PDI (polydispersity index) [1, 7] | Z-ave (hydrodynamic diameter) [1, 7] | Zeta (zeta potential) [1, 7] | bio-distribution of LNPs (luciferase expression by IVIS) (luciferase expression [2]) | other results
1 | CCCCC/C=C\C/C=C\CCCCCCCCN(CCO)CCCCCCCCCCOC(=O)CCCCCCCCCN(CCO)CCCCCCCC/C=C\C/C=C\CCCCC [DSL1-1] | 0.23 | 187.3 nm·days | −6.37 mV | distributed to both liver and spleen | uptake by CD11c positive splenic dendritic cells (tdTomato expression) [3]: ~3%; peritoneal macrophages expressing tdTomato (peritoneal macrophages): ~60%
2 | CCCCC/C=C\C/C=C\CCCCCCCCN(CCO)CCCCCCCCCCOC(=O)CCCCCCCCCN(CCO)CCCCCCCCCCCC [DSL1-2] | 0.17 | 197.2 nm·days | −7.52 mV | – | uptake by CD11c positive splenic dendritic cells (tdTomato expression) [3]: ~12%; peritoneal macrophages expressing tdTomato (peritoneal macrophages): about 90%
3 | CCCCC/C=C\C/C=C\CCCCCCCCN(CCO)CCCCCCCCCCCOC(=O)CCCCCCCCCN(O)CCCCCCCCCCCC [DSL1-3] | 0.17 | 164.8 nm·days | −3.90 mV | preferentially taken up by spleen | LNP distribution and expression, 1.5 mol % vs 2.5 mol % PEG (luciferase expression [2]; mLUC-LNPs IV, two formulations compared): no significant different observed; uptake by CD11c positive splenic dendritic cells (tdTomato expression) [3]: ~18%; peritoneal macrophages expressing tdTomato (peritoneal macrophages): ~20%; toxicity (levels of liver enzymes Alk Phos, SGOT, SGPT) (mice): not toxic
4 | CCCCCCCCCCCCN(CCO)CCCCCCCCCCOC(=O)CCCCCCCCCN(CCO)CCCCCCCCCCCC [DSL1-4] | 0.13 | 188.7 nm·days | −1.43 mV | preferentially taken up by spleen | PDI ([1]; LNPs with DOPE as co-lipid): 0.1; Z-ave (hydrodynamic diameter) ([1]; LNPs with DOPE as co-lipid): 92.3 nm·days; PDI ([1]; LNPs with DSPC as co-lipid): 0.15; Z-ave (hydrodynamic diameter) ([1]; LNPs with DSPC as co-lipid): 190.9 nm·days; luciferase activity of LNPs with DOPE as co-lipid compared to DSPC containing LNPs (luciferase expression [2]; IVIS): loses its luciferase activity
5 | CCCCCCCCCCCCN(CCO)CCCCCCCCCC(=O)OCCOC(=O)CCCCCCCCCN(CCO)CCCCCCCCCCCC [DSL1-5] | – | – | – | preferentially taken up by spleen | bio-distribution on increasing ionizable lipid mole ratio (40% vs 30%) (luciferase expression [2]): altering the bio-distribution from the spleen to the liver
6 | CCCCC/C=C\C/C=C\CCCCCCCCN(CCO)CCCCCCCCCC(=O)ON(CCCCCCCCCCCC)CCCCCCCCCCCC [DSL2-1] | 0.24 | 49.2 nm·days | −6.97 mV | mostly taken-up by the liver | –
7 | CCCCCCCCCCCCN(CCO)CCCCCCCCCC(=O)ON(CCCCCCCCCCCC)CCCCCCCCCCCC [DSL2-2] | 0.23 | 50.8 nm·days | −5.31 mV | mostly taken-up by the liver | Z-ave (hydrodynamic diameter) ([1]; LNPs with DOPE as co-lipid): 72.5 nm·days and 88.5 nm·days; Z-ave (hydrodynamic diameter) ([1]; LNPs with DSPC as co-lipid): 50.8 nm·days and 80.3 nm·days; luciferase activity of LNPs with DOPE as co-lipid compared to DSPC containing LNPs (luciferase expression [2]; IVIS): enhanced luciferase activity observed in the liver
8 | CCCCCCN(CCCCCC)OC(=O)CCCCCCCCCN(CCO)CCCCCCCCCC(=O)ON(CCCCCC)CCCCCC [DSL2-49] | 0.07 | 63.9 nm·days | −5.65 mV | – | –
9 | CCCCCCN(CCCCCC)CCOC(=O)CCCCCCCCCN(CCO)CCCCCCCCCC(=O)OCCN(CCCCCC)CCCCCC [DSL2-50] | 0.04 | 80.3 nm·days | −2.68 mV | – | bio-distribution on increasing ionizable lipid mole ratio (40% vs 30%) (luciferase expression [2]): no significant changes in bio-distribution; luciferase activity of LNPs with DOPE as co-lipid compared to DSPC containing LNPs (luciferase expression [2]; IVIS): enhanced luciferase activity observed in the liver; LNP bio-distribution, intramuscular (IM) administration (luciferase expression [2]; mRNA-LNPs, IVIS): also reaching the liver apart from the injection site of the muscle; LNP bio-distribution, intravenous (IV) administration (luciferase expression [2]; mRNA-LNPs, IVIS): distributing to the liver; time over which LNPs are stable ([4]; mCherry LNPs stored at 2-8° C.): ≥ 3 months; size of the LNPs compared to freshly prepared LNPs ([4]; mCherry LNPs, after 3 months at 2-8° C.): slightly increased; time over which LNPs are stable ([4]; mLuc LNPs stored at 2-8° C.): ≥ 7 months; size and distribution of the LNPs compared to freshly prepared LNPs ([4]; mLuc LNPs, 210 days (7 months) at 2-8° C.): did not change; luciferase activity in the liver after storage (luciferase expression [5]): retain its luciferase activity in the liver; toxicity (levels of liver enzymes Alk Phos, SGOT, SGPT) (mice): not toxic; amount of Luciferase and mCherry expression [6]: high; post boost antibody response against SARS-CoV-2 (SARS-CoV-2): robust antibody response
10 | CCCCC/C=C\C/C=C\CCCCCCCCN(CCO)CCCCCCCCCCOC(=O)CCCCCCCCCN(CCO)CCCCCCCCCC(=O)OCCCCCCCCCCN(CCO)CCCCCCCC/C=C\C/C=C\CCCCC [DSL3c-1] | 0.45 | 261.9 nm·days | −2.68 mV | distributed to both liver and spleen | –
11 | CCCCCCCCCCCCN(CCCCCCCCCCCC)CC(=O)ON(CCCCCCCCCCCC)CCCCCCCCCCCC [DSL4-2] | 0.64 | 72.4 nm·days | −5.00 mV | no effect | –
12 | CCCCC/C=C\C/C=C\CCCCCCCCC(CCCCCCCC/C=C\C/C=C\CCCCC)OC(=O)CCCN(C)C [Dlin-MC3-DMA] | – | – | – | – | organ of accumulation (tdTomato expression, IVIS) (tdTomato expression): accumulated in the liver
